Each structure is given as a SMILES string.

The test in a line: Inhibition of Respiratory syncytial virus A2 fusion protein expressed in HEK293T cells harboring GAL4-NF-kappaB assessed as reduction in cell-cell fusion by luciferase assay.

By IC50 is commonly meant the midpoint of a concentration-inhibition curve. In the case of `CC(=O)NCc1ccc2c(c1)nc(CN1C(=O)C3(CC3)c3ccc(F)cc31)n2CCCC(F)(F)F`, the IC50 came out at 365 nM.
The value for `NCc1ccc2c(c1)nc(CN1C(=O)C3(CC3)c3ccc(F)cc31)n2C1CCOCC1` was 1.2 nM; that for `CC(C)CCn1c(CN2C(=O)C3(CC3)c3cccc(Cl)c32)nc2cc(CN)ccc21` was 47 nM; that for `CS(=O)(=O)CCCn1c(CN2C(=O)C3(CC3)c3ccc(F)cc32)nc2cc(CN)ccc21` was 2.6 nM.
On to `NC(=O)c1ccc2c(c1)nc(CN1C(=O)C3(CC3)c3ccc(F)cc31)n2CCCC(F)(F)F`, for which the IC50 turned out to be 71 nM.
As for `CC(C)CCn1c(CN2C(=O)C3(CC3)c3ccccc32)nc2cc(CN)ccc21`, the figure is 0.4 nM.
As for `NCc1ccc2c(c1)nc(CN1C(=O)C3(CC3)c3ccc(F)cc31)n2CCCC(F)(F)F` [Sisunatovir], the figure is 0.9 nM; as for `CC(C)CCn1c(CN2C(=O)C3(CC3)c3c(Cl)cccc32)nc2cc(CN)ccc21`, 11 nM; as for `O=C(O)c1ccc2c(c1)nc(CN1C(=O)C3(CC3)c3ccc(F)cc31)n2CCCC(F)(F)F`, > 25000 nM.
As for `CC(C)CCn1c(CN2C(=O)C3(CC3)c3ccc(F)cc32)nc2cc(CN)ccc21`, the figure is 0.5 nM; as for `CC(C)CCn1c(CN2C(=O)C3(CC3)c3ccc(Cl)cc32)nc2cc(CN)ccc21`, 1.2 nM; as for `CS(=O)(=O)c1ccc2c(c1)nc(CN1C(=O)C3(CC3)c3ccc(F)cc31)n2CCCC(F)(F)F`, 1070 nM.
Regarding `N=C(N)NCc1ccc2c(c1)nc(CN1C(=O)C3(CC3)c3ccc(F)cc31)n2CCCC(F)(F)F`, the IC50 is 183 nM.
As for `NCc1ccc2c(c1)nc(CN1C(=O)C3(CC3)c3ccc(F)cc31)n2C1CCC(O)CC1` (stereo not drawn), the figure is 2.6 nM.
The value for `NCc1ccc2c(c1)nc(CN1C(=O)C3(CC3)c3ccc(F)cc31)n2CCCCO` was 1.5 nM; that for `CC(C)CCn1c(CN2C(=O)C3(CC3)c3cccc(F)c32)nc2cc(CN)ccc21` was 1.3 nM.
The value for `O=C1N(Cc2nc3ccccc3n2CCCC(F)(F)F)c2cc(F)ccc2C12CC2` was 37 nM.
Regarding `NCc1ccc2c(c1)nc(CN1C(=O)C3(CC3)c3cccc(F)c31)n2CCCC(F)(F)F`, the IC50 was determined as 1 nM.
In the case of `CC(C)CCn1c(CN2C(=O)C3(CC3)c3cc(F)ccc32)nc2cc(CN)ccc21`, the IC50 is 0.7 nM.
The value for `O=C1N(Cc2nc3cc(Cl)ccc3n2CCCC(F)(F)F)c2cc(F)ccc2C12CC2` was 6.2 nM; that for `CC(C)CCn1c(CN2C(=O)C3(CC3)c3cc(Cl)ccc32)nc2cc(CN)ccc21` was 4.5 nM; that for `CCNC(=N)c1ccc2c(c1)nc(CN1C(=O)C3(CC3)c3ccc(F)cc31)n2CCCC(F)(F)F` was 641 nM.
As for `N=C(N)c1ccc2c(c1)nc(CN1C(=O)C3(CC3)c3ccc(F)cc31)n2CCCC(F)(F)F`, the figure is 3 nM.

For the origin of these results see BindingDB's records for doi:10.1021/acs.jmedchem.0c01882 (Reviral, 2021).
